{
  "source": "paper PMC8830500",
  "about": "“Small Molecule Palmatine Targeting Musashi-2 in Colorectal Cancer” (Frontiers in Pharmacology, 2022)",
  "format_in_all_cases": "binding",
  "key": {"LIN28A": {"target": "T1, LIN28A (Homo sapiens, UniProt Q9H9Z2)", "T1 construct": "GFP-tagged, HEK293FT lysate", "T1 sequence (Q9H9Z2 2-209)": "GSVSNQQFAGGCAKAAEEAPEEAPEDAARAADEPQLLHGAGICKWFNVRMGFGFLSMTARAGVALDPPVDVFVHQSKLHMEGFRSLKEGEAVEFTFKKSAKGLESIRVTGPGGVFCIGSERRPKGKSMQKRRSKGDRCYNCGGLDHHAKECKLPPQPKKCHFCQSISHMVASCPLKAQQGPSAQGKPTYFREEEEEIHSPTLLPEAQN", "assay": "MST with GFP-tagged protein in cell lysate"}, "HUR": {"target": "T2, HUR (Homo sapiens, UniProt Q15717)", "T2 construct": "gene ELAVL1; GFP-tagged, HEK293FT lysate", "T2 sequence (Q15717 2-326)": "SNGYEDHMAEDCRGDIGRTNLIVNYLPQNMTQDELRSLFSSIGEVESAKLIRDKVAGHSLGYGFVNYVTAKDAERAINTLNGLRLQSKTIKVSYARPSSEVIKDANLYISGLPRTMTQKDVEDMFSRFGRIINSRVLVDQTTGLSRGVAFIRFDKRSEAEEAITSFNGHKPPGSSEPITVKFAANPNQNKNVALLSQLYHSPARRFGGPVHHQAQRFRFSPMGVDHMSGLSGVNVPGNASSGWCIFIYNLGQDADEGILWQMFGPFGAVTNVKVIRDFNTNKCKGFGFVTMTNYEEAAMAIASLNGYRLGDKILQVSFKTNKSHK", "assay": "MST with GFP-tagged protein in cell lysate"}, "Musashi-2 (MSI2)": {"target": "Musashi-2 (MSI2) (Homo sapiens, UniProt Q96DH6)", "sequence (Q96DH6 whole entry)": "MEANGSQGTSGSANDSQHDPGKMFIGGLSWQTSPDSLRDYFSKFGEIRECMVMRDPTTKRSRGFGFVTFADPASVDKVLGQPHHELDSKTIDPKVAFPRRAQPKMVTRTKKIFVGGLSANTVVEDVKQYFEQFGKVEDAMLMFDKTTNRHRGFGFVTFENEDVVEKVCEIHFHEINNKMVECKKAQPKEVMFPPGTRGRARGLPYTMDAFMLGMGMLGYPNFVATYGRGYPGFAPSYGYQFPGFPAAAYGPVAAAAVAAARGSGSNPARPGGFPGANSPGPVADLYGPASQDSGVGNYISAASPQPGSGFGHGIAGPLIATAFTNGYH", "assay": "MST with GFP-tagged protein in HEK293FT lysate; CETSA in HCT116 cells"}},
  "data": [
    {"smiles": "COc1cc2c(cc1OC)-c1cc3ccc(OC)c(OC)c3c[n+]1CC2", "note": "[palmatine]", "values": [
      {"measurement": "Kd", "setting": "LIN28A", "value": 49.6, "unit": "µM"},
      {"measurement": "Kd", "setting": "HUR", "value": 33.5, "unit": "µM"},
      {"measurement": "Kd", "setting": "Musashi-2 (MSI2)", "value": 17, "unit": "µM"}
    ]}
  ]
}
